# Data as given in patent publication US20060193893A1, “Medical devices” (ChemGenex Pharmaceuticals, Inc., priority 2005, published 2006).
# Marks after values point to notes of the source that are not given here.
# System: chorioallantoic membrane (CAM)
# Assay: Effects of homoharringtonine in the early chicken chorioallantoic membrane (CAM) assay
# Format: in vivo
# Conditions: for CAM area, Day 4: Day 4 (start of treatment, matched groups); for CAM area, Day 4 / CAM increase (fold) / Artery length / CAM area, Day 5 / Relative artery length / Relative total vessel length / Relative vein length / Total vessel length / Vein length: mean ± SEM, n = 6; for CAM increase (fold): Day 4 to Day 5; for Artery length / CAM area, Day 5 / Relative artery length / Relative total vessel length / Relative vein length / Total vessel length / Vein length: Day 5
# Protocol: Fertilized chicken eggs (HiChick Breeding Co, Kapunda, South Australia) were incubated for three days at 38° C. On Day 3 the embryos were cracked out of the egg and into a cup made of plastic piping, with plastic film stretched over the top to form a hammock for the egg to be suspended in. Two ml of DMEM containing penicillin and streptomycin was added to each cup prior to the egg being added. A Petri dish on the top maintained sterility. Incubation continued in a humidified 37° C. incubator.
# On Day 4 the chorioallantoic membrane (CAM) begins to grow, and pictures were taken of each embryo at ×5 to measure the CAM area using image analysis software (Video Pro 32, Leading Edge Pty Ltd, South Australia). Embryos were then grouped according to their CAM area, with a control embryo in each for comparison. There were four matched embryos, treated with 6.25, 12.5 and 25 ng of homoharringtonine. Grouping is critical as in these early developmental stages changes in the CAM growth are dramatic. Relatively small differences in size on Day 4 translate to large differences in the CAM on Day 5, making it impossible to compare treatments. Substances were applied in methylcellulose discs, which were first dried under vacuum overnight. The methylcellulose discs were applied to the top of the CAM, and at the beginning of treatment were at least three to four-fold bigger than the CAM area, meaning treatment covered the entire CAM surface.
# On Day 5 skim milk with contrast medium was injected into the CAM. Pictures were then taken at various levels of magnification up to ×63. Quantitative measurements were made from ×5 pictures. CAM area, and vein and artery lengths were measured using image analysis (Video Pro 32, Leading Edge Pty Ltd, South Australia). Relative vessel lengths were then calculated as the total length/CAM area. Statistical analysis was made using SigmaStat and OneWay ANOVA with p<0.05 as the level of significance.
# FIG. 3A illustrates the normal organization of the CAM is uniform, with the major vein draining towards the left, and the artery branches coming over the edge of the top and bottom of the CAM. FIGS. 3B and 3C schematically illustrate tracing of the vein and artery branches, as performed for the measurement of vessel lengths.
# The angiogenic inhibitor, homoharringtonine, was obtained from ChemGenex Therapeutics, Inc. (Menlo Park, Calif.) and was made to the appropriate concentration in sterile water. […] Homoharringtonine was applied at 6.25, 12.5 and 25 ng (11.3, 22.5 and 45 nM) doses, and compared with water treated controls. Homoharringtonine reduced the growth of the CAM to 42% of the control in the 25 ng treated CAM. […] The vein, artery and total vessel lengths were reduced to 15%, 18% and 17% of control, respectively.
smiles,measurement,setting,value
"COC(=O)C[C@](O)(CCCC(C)(C)O)C(=O)O[C@@H]1C(OC)=C[C@]23CCCN2CCc2cc4c(cc2[C@H]13)OCO4 [Homoharringtonine, cephalotaxine, 4-methyl-2-hydroxy-2-(4-hydroxy-4-methylpentyl) butanediocate ester]","CAM area, Day 4",6.25 ng in methylcellulose disc,6.5 ± 1.6 pixels
same,CAM increase (fold),6.25 ng,7.0 ± 0.4 ^a fold
same,Artery length,6.25 ng,1573 ± 516^ pixels
same,"CAM area, Day 5",6.25 ng,45.3 ± 11.6 pixels
same,Relative artery length,6.25 ng,31.6 ± 4.5 ^a b length/CAM area
same,Relative total vessel length,6.25 ng,63.2 ± 7.7 ^b length/CAM area
same,Relative vein length,6.25 ng,31.6 ± 4.6 ^b length/CAM area
same,Total vessel length,6.25 ng,3055 ± 1003 pixels
same,Vein length,6.25 ng,1482 ± 499^ pixels
same,"CAM area, Day 4",12.5 ng in methylcellulose disc,6.3 ± 1.6^ pixels
same,CAM increase (fold),12.5 ng,9.0 ± 1.0 ^b fold
same,Artery length,12.5 ng,1787 ± 544 ^ pixels
same,"CAM area, Day 5",12.5 ng,53.0 ± 11.6^ pixels
same,Relative total vessel length,12.5 ng,60.1 ± 7.5 ^b length/CAM area
same,Relative vein length,12.5 ng,28.3 ± 4.4 ^b length/CAM area
same,Total vessel length,12.5 ng,3351 ± 953 ^ pixels
same,Vein length,12.5 ng,1564 ± 427 ^ pixels
same,embryo survival at 25 ng,25 ng dose,killed one of the smaller embryos
same,"artery length, % of control",25 ng group vs water control,18%
same,"total vessel length, % of control",25 ng group vs water control,17%
same,"vein length, % of control",25 ng group vs water control,15%
same,"CAM area, Day 4",25 ng in methylcellulose disc,6.2 ± 1.5 pixels
same,"growth of the CAM, % of the control",25 ng treated CAM vs water control,42%
same,CAM increase (fold),25 ng,4.3 ± 0.7 ^a fold
same,Artery length,25 ng,551 ± 265 ^a pixels
same,"CAM area, Day 5",25 ng,30.2 ± 9.9 ^ pixels
same,Relative artery length,25 ng,13.0 ± 4.3 ^a length/CAM area
same,Relative total vessel length,25 ng,24.3 ± 6.7 ^a length/CAM area
same,Relative vein length,25 ng,11.3 ± 3.5 ^a length/CAM area
same,Total vessel length,25 ng,909 ± 396 ^a pixels
same,Vein length,25 ng,359 ± 143 ^a pixels
same,embryo survival at the initial doses,"initial doses, above 25 ng, dose then reduced",resulted in the death of the embryos
CC(=O)O[C@H]1C(=O)[C@@]2(C)[C@H]([C@H](OC(=O)c3ccccc3)[C@]3(O)C[C@H](OC(=O)[C@H](O)[C@@H](NC(=O)c4ccccc4)c4ccccc4)C(C)=C1C3(C)C)[C@]1(OC(C)=O)CO[C@@H]1C[C@@H]2O [taxol],qualitative changes at higher magnification (FIG. 5),"homoharringtonine 25 ng, taxol dose not given, vs water control",diffuse leakage of the red blood cells outside the vessels and the skeletons of larger vessels with no remaining blood flow
